Experimental data taken from PubChem BioAssay AID1963959 (Molecular Pharmacology Branch, DTP, NCI, 2024).

Test system: T-47D spheroids with HUVEC/MSC, viability
Test: Anticancer human tumor T-47D cell line growth inhibition [PI3K];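 also: spheroids exposed to agents for seven days before reading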;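 as to viability, T/C: percent of DMSO vehicle control luminescence so 100% = untreated growth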
Conditions: for IC50: curve of first compound; for viability, T/C: stronger effect = lower value; active = viability on the fitted dose curve at most 10% of control; inactive = the rest
Description: Combinatorial screen of targeted agents with the PI3K inhibitors inavolisib, alpelisib, duvelisib, and copanlisib in multi-cell type tumor spheroids
A high-throughput screen of multi-cell type tumor spheroids was designed to identify active combinations of targeted small molecules and PI3K pathway inhibitors. Complex spheroids include a stromal component modeled by human endothelial cells (HUVEC) and fibroblasts modeled by human mesenchymal stem cells (MSCs). The concentration ranges selected for each drug and investigational agent were based upon clinically achievable concentrations if the clinical Cmax of the agent was known.
Compounds. The drugs and investigational agents: inavolisib (NSC800729), alpelisib (NSC765974), duvelisib (NSC772469), copanlisib (NSC816437), ipatasertib (NSC767898), afuresertib (NSC778305), talazoparib (NSC767125), sapanisertib (NSC764658), selumetinib (NSC741078), tovorafenib (DAY101, NSC766906), vemurafenib (NSC761431), ravoxertinib (NSC781343), sotorasib (NSC818433), MRTX1133 (NSC 836407), abemaciclib (NSC 768073), palbociclib (NSC758247), venetoclax (NSC 766270), SY5609 (NSC837396), enzalutamide (NSC755605), and darolutamide (NSC825331), were obtained from the National Cancer Institute (NCI) Developmental Therapeutics Program Chemical Repository. The FDA-approved anticancer drug set is available from the NCI Developmental Therapeutics Program. […] The stock solutions were prepared in dimethyl sulfoxide (DMSO, Sigma-Aldrich, St. Louis, MO, cat. D2650) at 800-fold the tested concentration and stored at -70 degrees C prior to their use. All drugs and investigational agents were tested over a range starting from a high concentration at or near the clinical Cmax and decreasing in half-log increments. If the clinical Cmax for an agent had not been determined, the highest concentration tested was 10 microM.
Cell Culture. All cells were maintained in an incubator at 37 degrees C and 5% CO2 with 95% humidity. The PDC lines were cultured according to standard operating procedures established by the NCI PDMR (https://pdmr.cancer.gov/sops/default.htm). All PDCs were thawed and cultured in Matrigel-coated flasks prepared with a working solution of 1X Ham's F-12 nutrient mix, without supplementation (Invitrogen, Waltham, MA, cat. 11765054), 100 U/mL penicillin-streptomycin (Invitrogen, cat. 15140122), and 2.5% Matrigel (Corning Inc., Corning, NY, cat. 354248) for the first three passages. The 354836-022-R-J1-PDC, 475296-252-R-J1-PDC, and 997726-040-R-J2-PDC lines were cultured in 6A media, which includes advanced DMEM/F-12 (Thermo Fisher Scientific, cat. 12634028), 10 mM HEPES (Thermo Fisher Scientific, cat. 15630080), 1X GlutaMAX supplement (Thermo Fisher Scientific, cat. 35050061), 0.1 mg/mL primocin (InvivoGen, San Diego, CA, cat. ant-pm-2), 10% defined fetal bovine serum, heat inactivated (HyClone Laboratories Inc., Logan, UT, cat. SH30070.03HI), 50% L-WRN conditioned media (ATCC, cat. CRL-3276), 1.25 mM N-Acetyl-L-cysteine (Sigma-Aldrich, cat. A9165), 10 mM nicotinamide (Sigma-Aldrich, cat. N0636), 1X B-27 supplement (Thermo Fisher Scientific, cat. 17504044), 1X N-2 supplement (Thermo Fisher Scientific, cat. 17502048), and 10 microM Y-27632 dihydrochloride (Tocris Bioscience, Bristol, United Kingdom, cat. 1254). The 624824-186-R-J2-PDC line was cultured in 6C/Colon 1B media, which includes all 6A media components plus 50 ng/mL human EGF recombinant protein (Thermo Fisher Scientific, cat. PHG0311). […]

[1] = second compound 0.00316 µM, first compound 0.0316 µM
[2] = second compound 0.00316 µM, first compound 0.1 µM
[3] = second compound 0.00316 µM, first compound 0.316 µM
[4] = second compound 0.00316 µM, first compound 1 µM
[5] = second compound 0.00316 µM, first compound 3.16 µM
[6] = second compound 0.00316 µM, first compound 10 µM
[7] = second compound 0.01 µM, first compound 0.0316 µM
[8] = second compound 0.01 µM, first compound 0.1 µM
[9] = second compound 0.01 µM, first compound 0.316 µM
[10] = second compound 0.01 µM, first compound 1 µM
[11] = second compound 0.01 µM, first compound 3.16 µM
[12] = second compound 0.01 µM, first compound 10 µM
[13] = second compound 0.0316 µM, first compound 0.0316 µM
[14] = second compound 0.0316 µM, first compound 0.1 µM
[15] = second compound 0.0316 µM, first compound 0.316 µM
[16] = second compound 0.0316 µM, first compound 1 µM
[17] = second compound 0.0316 µM, first compound 3.16 µM
[18] = second compound 0.0316 µM, first compound 10 µM
[19] = second compound 0.1 µM, first compound 0.0316 µM
[20] = second compound 0.1 µM, first compound 0.1 µM
[21] = second compound 0.1 µM, first compound 0.316 µM
[22] = second compound 0.1 µM, first compound 1 µM
[23] = second compound 0.1 µM, first compound 3.16 µM
[24] = second compound 0.1 µM, first compound 10 µM
[25] = second compound 0.316 µM, first compound 0.0316 µM
[26] = second compound 0.316 µM, first compound 0.1 µM
[27] = second compound 0.316 µM, first compound 0.316 µM
[28] = second compound 0.316 µM, first compound 1 µM
[29] = second compound 0.316 µM, first compound 3.16 µM
[30] = second compound 0.316 µM, first compound 10 µM
[31] = second compound 1 µM, first compound 0.0316 µM
[32] = second compound 1 µM, first compound 0.1 µM
[33] = second compound 1 µM, first compound 0.316 µM
[34] = second compound 1 µM, first compound 1 µM
[35] = second compound 1 µM, first compound 3.16 µM
[36] = second compound 1 µM, first compound 10 µM

CC1(C)CCC(CN2CCN(c3ccc(C(=O)NS(=O)(=O)c4ccc(NCC5CCOCC5)c([N+](=O)[O-])c4)c(Oc4cnc5[nH]ccc5c4)c3)CC2)=C(c2ccc(Cl)cc2)C1 + CC(Nc1ccc2c(c1)OCCn1cc(N3C(=O)OCC3C(F)F)nc1-2)C(N)=O
inactive: viability, T/C [1] 101% | viability, T/C [2] 97.2% | viability, T/C [3] 98.9% | viability, T/C [4] 89.8% | viability, T/C [5] 76.3% | viability, T/C [6] 78.9% | viability, T/C [7] 90.1% | viability, T/C [8] 81.5% | viability, T/C [9] 93.7% | viability, T/C [10] 91.6% | viability, T/C [11] 79.5% | viability, T/C [12] 69.7% | viability, T/C [13] 87.3% | viability, T/C [14] 94% | viability, T/C [15] 103% | viability, T/C [16] 75.5% | viability, T/C [17] 87% | viability, T/C [18] 65.5% | viability, T/C [19] 77.6% | viability, T/C [20] 76.3% | viability, T/C [21] 89.6% | viability, T/C [22] 87.5% | viability, T/C [23] 89.5% | viability, T/C [24] 53.4% | viability, T/C [25] 65.5% | viability, T/C [26] 79.2% | viability, T/C [27] 69.7% | viability, T/C [28] 61.4% | viability, T/C [29] 72.9% | viability, T/C [30] 52.1% | viability, T/C [31] 52.9% | viability, T/C [32] 54.5% | viability, T/C [33] 61% | viability, T/C [34] 57.2% | viability, T/C [35] 53% | viability, T/C [36] 38.3%
> 10 µM: IC50 (second compound 0.00316 µM) | IC50 (second compound 0.01 µM) | IC50 (second compound 0.0316 µM) | IC50 (second compound 0.1 µM) | IC50 (second compound 0.316 µM)
4.16 µM: IC50 (second compound 1 µM)

C[C@@H](NC(=O)c1ncnc(N)c1Cl)c1ncc(C(=O)Nc2cc(C(F)(F)F)c(Cl)cn2)s1 + CC(Nc1ccc2c(c1)OCCn1cc(N3C(=O)OCC3C(F)F)nc1-2)C(N)=O
> 10 µM: IC50 (second compound 0.00316 µM) | IC50 (second compound 0.01 µM) | IC50 (second compound 0.0316 µM) | IC50 (second compound 0.1 µM) | IC50 (second compound 0.316 µM) | IC50 (second compound 1 µM)
inactive: viability, T/C [1] 110% | viability, T/C [2] 92.2% | viability, T/C [3] 87.9% | viability, T/C [4] 79.2% | viability, T/C [5] 94.5% | viability, T/C [6] 99.3% | viability, T/C [7] 104% | viability, T/C [8] 85.3% | viability, T/C [9] 87.4% | viability, T/C [10] 83.3% | viability, T/C [11] 113% | viability, T/C [12] 101% | viability, T/C [13] 95.2% | viability, T/C [14] 87.3% | viability, T/C [15] 83.8% | viability, T/C [16] 86.2% | viability, T/C [17] 91.4% | viability, T/C [18] 94.7% | viability, T/C [19] 79.8% | viability, T/C [20] 82% | viability, T/C [21] 83.3% | viability, T/C [22] 97.1% | viability, T/C [23] 97.4% | viability, T/C [24] 94.4% | viability, T/C [25] 69.4% | viability, T/C [26] 79.6% | viability, T/C [27] 75.2% | viability, T/C [28] 69.8% | viability, T/C [29] 71.8% | viability, T/C [30] 74.3% | viability, T/C [31] 52.9% | viability, T/C [32] 53.4% | viability, T/C [33] 65% | viability, T/C [34] 57.9% | viability, T/C [35] 62.3% | viability, T/C [36] 65.8%
